According to patent US11292821B2, “Peptides and combination of peptides for use in immunotherapy against lung cancer, including NSCLC, SCLC and other cancers” (Immatics Biotechnologies GmbH, priority 2017, dated 2022):

Tests used:
CD8+ T cells = assay: In vitro T-cell priming assay with aAPCs (in vitro immunogenicity for MHC class I presented peptides); type: cell-based, human; settings: in vitro immunogenicity, HLA B*07
HLA-B*07 = HLA-B*07 (Homo sapiens, UniProt P01889); assay: MHC binding assay (UV-ligand exchange, β2m ELISA)
Excerpt: Candidate peptides for T cell based therapies according to the present invention were further tested for their MHC binding capacity (affinity). The individual peptide-MHC complexes were produced by UV-ligand exchange, where a UV-sensitive peptide is cleaved upon UV-irradiation, and exchanged with the peptide of interest as analyzed. Only peptide candidates that can effectively bind and stabilize the peptide-receptive MHC molecules prevent dissociation of the MHC complexes. To determine the yield of the exchange reaction, an ELISA was performed based on the detection of the light chain (β2m) of stabilized MHC complexes. The assay was performed as generally described in Rodenko et al. (Rodenko et al., 2006).
96 well MAXISorp plates (NUNC) were coated over night with 2 ug/ml streptavidin in PBS at room temperature, washed 4× and blocked for 1 h at 37° C. in 2% BSA containing blocking buffer. […] Peptide-MHC monomers of the UV-exchange reaction were diluted 100-fold in blocking buffer. Samples were incubated for 1 h at 37° C., washed four times, incubated with 2 ug/ml HRP conjugated anti-β2m for 1h at 37° C., washed again and detected with TMB solution that is stopped with […]. Absorption was measured at 450 nm. Candidate peptides that show a high exchange yield (preferably higher than 50%, most preferred higher than 75%) are generally preferred for a generation and production of antibodies or fragments thereof, and/or T cell receptors or fragments thereof, as they show sufficient avidity to the MHC molecules and prevent dissociation of the MHC complexes.

HLA-B*44 = assay: MHC binding assay (UV-ligand exchange, β2m ELISA); design: species or system human; settings: UV-ligand exchange, β2m ELISA

Row | Peptide exchange (peptide exchange yield, MHC class I binding score) (HLA-B*07) | Peptide exchange (peptide exchange yield, MHC class I binding score) (HLA-B*44) | Substance | Wells positive [%] (CD8+ T cells)
1 | “++++” (>75% = ++++) | – | 241 (SARLATDAL; listed as Homo sapiens) [compound 241] | “+++” (50%-69% = +++)
2 | “++++” (>75% = ++++) | – | 242 (SPRWLPVSL; listed as Homo sapiens) [compound 242] | “++++” (>=70% = ++++)
3 | “++++” (>75% = ++++) | – | 244 (FPYVRDFVM; listed as Homo sapiens) [compound 244] | “+” (<20% = +)
4 | “+++” (>50 = +++) | – | 245 (RIREHVPQL; listed as Homo sapiens) [compound 245] | “++” (20%-49% = ++)
5 | “++++” (>75% = ++++) | – | 248 (IPNWARQDL; listed as Homo sapiens) [compound 248] | “++++” (>=70% = ++++)
6 | “++++” (>75% = ++++) | – | 249 (VPSSRILQL; listed as Homo sapiens) [compound 249] | “+++” (50%-69% = +++)
7 | “++++” (>75% = ++++) | – | 250 (SPRDFLSGL; listed as Homo sapiens) [compound 250] | “+” (<20% = +)
8 | “++++” (>75% = ++++) | – | 252 (SPDIRNTTV; listed as Homo sapiens) [compound 252] | “+” (<20% = +)
9 | “+++” (>50 = +++) | – | 274 (TPYQEHVAL; listed as Homo sapiens) [compound 274] | “+” (<20% = +)
10 | “++++” (>75% = ++++) | – | 285 (FPSFLTNSL; listed as Homo sapiens) [compound 285] | “++++” (>=70% = ++++)
11 | “+++” (>50 = +++) | – | 292 (SPQRLRGLLL; listed as Homo sapiens) [compound 292] | “+++” (50%-69% = +++)
12 | “++++” (>75% = ++++) | – | 293 (RPRSALPRLLLP; listed as Homo sapiens) [compound 293] | “++” (20%-49% = ++)
13 | “++++” (>75% = ++++) | – | 294 (GPTPNTGAAL; listed as Homo sapiens) [compound 294] | “+++” (50%-69% = +++)
14 | – | “++++” (>75% = ++++) | 319 (AEMLERVIKNY; listed as Homo sapiens) [compound 319] | –
15 | – | “+++” (>50 =+++) | 321 (AEMLESVIKNY; listed as Homo sapiens) [compound 321] | –
16 | – | “+++” (>50 =+++) | 324 (TDSIHAWTF; listed as Homo sapiens) [compound 324] | –
17 | – | “+++” (>50 =+++) | 327 (YEIEARNQVF; listed as Homo sapiens) [compound 327] | –
18 | – | “++” (>20% = ++) | 332 (MEVPVIKI; listed as Homo sapiens) [compound 332] | –
19 | – | “++” (>20% = ++) | 335 (KELEATKQY; listed as Homo sapiens) [compound 335] | –
20 | – | “++” (>20% = ++) | 336 (ASSSGPMRWW; listed as Homo sapiens) [compound 336] | –
21 | – | “+++” (>50 =+++) | 341 (EEIEGKGSFTYF; listed as Homo sapiens) [compound 341] | –
22 | – | “++” (>20% = ++) | 343 (TEFTTVLY; listed as Homo sapiens) [compound 343] | –

Row | Peptide exchange (peptide exchange yield, MHC class I binding score) (HLA-B*07) | Peptide exchange (peptide exchange yield, MHC class I binding score) (HLA-B*44) | Substance | Wells positive [%] (CD8+ T cells)
23 | – | “+++” (>50 =+++) | 344 (EEATGQFHVY; listed as Homo sapiens) [compound 344] | –
24 | – | “++++” (>75% = ++++) | 345 (IEFIHPQAF; listed as Homo sapiens) [compound 345] | –
25 | – | “++++” (>75% = ++++) | 346 (VEAPGPVHVYW; listed as Homo sapiens) [compound 346] | –
26 | – | “+++” (>50 =+++) | 347 (ALNPYQYQY; listed as Homo sapiens) [compound 347] | –
27 | – | “+++” (>50 =+++) | 348 (AEIQGNINHV; listed as Homo sapiens) [compound 348] | –
28 | – | “+++” (>50 =+++) | 349 (AEQDMRELTY; listed as Homo sapiens) [compound 349] | –
29 | – | “+++” (>50 =+++) | 350 (GECDVFKEIL; listed as Homo sapiens) [compound 350] | –
30 | – | “+++” (>50 =+++) | 351 (EEVNYINTF; listed as Homo sapiens) [compound 351] | –
31 | – | “++++” (>75% = ++++) | 352 (NEVLTYIKF; listed as Homo sapiens) [compound 352] | –
32 | – | “++++” (>75% = ++++) | 353 (GEIIMQNNW; listed as Homo sapiens) [compound 353] | –
33 | – | “+++” (>50 =+++) | 354 (TEDPTILRI; listed as Homo sapiens) [compound 354] | –
34 | – | “++” (>20% = ++) | 355 (SDMVRFHLF; listed as Homo sapiens) [compound 355] | –
35 | – | “+++” (>50 =+++) | 356 (EEGRVYLF; listed as Homo sapiens) [compound 356] | –
36 | – | “+++” (>50 =+++) | 357 (RELENCFQIQ; listed as Homo sapiens) [compound 357] | –
37 | – | “++++” (>75% = ++++) | 358 (KEADIHFLI; listed as Homo sapiens) [compound 358] | –
38 | – | “+++” (>50 =+++) | 359 (DELFSIALY; listed as Homo sapiens) [compound 359] | –
39 | – | “++++” (>75% = ++++) | 360 (AEVPTGVII; listed as Homo sapiens) [compound 360] | –
40 | “++++” (>75% = ++++) | – | 460 (MPMAGDMNGL; listed as Homo sapiens) [compound 460] | “++” (20%-49% = ++)
41 | “++++” (>75% = ++++) | – | 462 (RPFHTRATV; listed as Homo sapiens) [compound 462] | “++” (20%-49% = ++)
42 | “++++” (>75% = ++++) | – | 463 (TPKAGPTL; listed as Homo sapiens) [compound 463] | “+” (<20% = +)
43 | “++++” (>75% = ++++) | – | 473 (LPRALLSSL; listed as Homo sapiens) [compound 473] | “++” (20%-49% = ++)
44 | “++++” (>75% = ++++) | – | 474 (LPRLLPAL; listed as Homo sapiens) [compound 474] | “+++” (50%-69% = +++)
